Source: patent US20250214965A1, “COMPOUND AS KIF18A INHIBITOR” (Hangzhou Innogate Pharma Co., Ltd., priority 2021, published 2025)
Read-outs that look alike come from different tables or passages of the source. Values belong to the compound of their own block, whether it stands above or below them.

Legend:
OVCAR-3 = assay: Inhibition of proliferation of ovarian cancer cell line OVCAR-3 (CellTiter Glo); format: cell-based; conditions: read-out: OVCAR-3 IC50
HCC1806 = assay: Inhibition of proliferation of breast cancer cell line HCC1806 (CellTiter Glo); format: cell-based; conditions: read-out: HCC1806 IC50
[1] = rat, in vivo, po, 3 mg/kg
KIF18A = KIF18A (Homo sapiens (Human), UniProt Q8NI77); assay: Inhibition of KIF18A enzyme activity (ADP-Glo); format: biochemical; conditions: 60 min at 25° C.
Chain of KIF18A (Q8NI77 whole entry): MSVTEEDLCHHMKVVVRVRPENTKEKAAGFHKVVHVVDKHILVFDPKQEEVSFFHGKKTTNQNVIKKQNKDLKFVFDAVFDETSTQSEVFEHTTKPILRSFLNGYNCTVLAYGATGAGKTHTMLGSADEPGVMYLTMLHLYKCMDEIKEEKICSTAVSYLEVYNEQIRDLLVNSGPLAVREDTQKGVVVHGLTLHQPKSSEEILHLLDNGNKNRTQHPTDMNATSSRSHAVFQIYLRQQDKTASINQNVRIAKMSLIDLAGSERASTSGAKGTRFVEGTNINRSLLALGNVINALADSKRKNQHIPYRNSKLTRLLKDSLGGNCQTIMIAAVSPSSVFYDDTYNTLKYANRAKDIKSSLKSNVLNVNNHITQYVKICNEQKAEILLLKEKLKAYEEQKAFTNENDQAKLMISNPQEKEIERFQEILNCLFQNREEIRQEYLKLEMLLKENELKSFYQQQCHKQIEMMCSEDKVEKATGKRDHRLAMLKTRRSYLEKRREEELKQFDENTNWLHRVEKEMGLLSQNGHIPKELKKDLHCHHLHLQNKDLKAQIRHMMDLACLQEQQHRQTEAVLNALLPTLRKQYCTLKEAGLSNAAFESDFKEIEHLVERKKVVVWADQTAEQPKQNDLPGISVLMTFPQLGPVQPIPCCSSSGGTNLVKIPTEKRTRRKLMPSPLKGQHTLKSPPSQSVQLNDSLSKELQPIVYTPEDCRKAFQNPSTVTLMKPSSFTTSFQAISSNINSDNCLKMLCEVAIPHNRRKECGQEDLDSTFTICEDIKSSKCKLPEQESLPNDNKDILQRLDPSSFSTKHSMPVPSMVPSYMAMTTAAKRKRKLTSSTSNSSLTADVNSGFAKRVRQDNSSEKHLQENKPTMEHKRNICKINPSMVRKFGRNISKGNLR
Protocol: The ADP-Glo method was used to test the enzymatic activity of KIF18A. The compound was diluted 3-fold with DMSO at a starting concentration of 3000 nM, for a total of ten concentrations, and tested in duplicate. Echo was used to transfer 25 nL of the diluted compound to a 384-well plate, and 2.5 μL of enzyme working solution was added. Plate was centrifuged at 1000 rpm for 1 min, and incubated at 25° C. for 10 min. 2.5 μL of ATP and substrate solution was added to start the reaction, and plate was incubated at 25° C. for 60 min. 4 μL of ADP-Glo solution was added to the 384-well plate, and plate was incubated at 25° C. for 40 min. 8 μL of detection solution was added and incubated at 25° C. for 40 min, and BMG was used to read the […] value. Inhibition rate was calculate according to the following formula: Inhibition rate (%)=(DMSO well−compound well)/(DMSO well−blank control well)×100%. The IC50 value of each compound was analyzed using the nonlinear regression method of XLFit 5.5.0 software. The formula is: Y=Bottom+(Top−Bottom)/(1+10^((Log IC50−X)*HillSlope)).

HCC1954 = assay: Inhibition of proliferation of breast cancer cell line HCC1954 (CellTiter Glo); format: cell-based; conditions: HCC1954 cells, 96 hours
[2] = Pharmacokinetic study in rats
[3] = Homo sapiens, OVCAR-3 cells, 96 hours, CellTiter Glo
[4] = Homo sapiens, HCC1806 cells, 96 hours, CellTiter Glo
[5] = male, SD, rat, plasma, po, 3 mg/kg

Structure (SMILES): O=C(Nc1cccc(N2CC(F)(F)C2)n1)c1ccc(NS(=O)(=O)C2(CN3CCC3)CC2)cc1N1CCC2(CC1)CC2 [Compound 29]
IC50 (OVCAR-3; Homo sapiens, OVCAR-3, 96 h): < 500 nM
IC50 (HCC1806; Homo sapiens, HCC1806, 96 h): < 1000 nM

Structure (SMILES): Cc1cc(NC(=O)c2ccc(NS(=O)(=O)CCO)cc2N2CCC(=C(F)F)CC2)nc(N2CCC(F)(F)CC2)n1 [Compound 33]
IC50 (OVCAR-3): < 75 nM
IC50 (HCC1806): < 200 nM
AUC0-24 h [1]: 10273.88 ng·h/mL
Cmax [1]: 717.6 ng/mL
T1/2 [1]: 7.05 h
Tmax [1]: 8.00 h
IC50 (KIF18A): < 50 nM
IC50 (HCC1954): < 75 nM

Structure (SMILES): CC(C)=C1CCN(c2cc(NS(=O)(=O)CCO)ccc2C(=O)Nc2cc(C)nc(N3CCC(F)(F)CC3)n2)CC1 [Compound 35]
IC50 (OVCAR-3; [3]): < 500 nM

Structure (SMILES): C=C(C)C1CCN(c2cc(NS(=O)(=O)C3(C)CC3)ccc2C(=O)Nc2cccc(S(=O)(=O)NC(C)(C)C)c2)CC1 [Compound 36]
IC50 (OVCAR-3; [3]): < 200 nM

Structure (SMILES): CC(C)(C)NS(=O)(=O)c1cccc(NC(=O)c2ccc(NS(=O)(=O)C3(C)CC3)cc2N2CCC(=C(F)F)CC2)c1 [Compound 39]
IC50 (OVCAR-3; [3]): < 50 nM

Structure (SMILES): CC(C)(C)NS(=O)(=O)c1cccc(NC(=O)c2ccc(NS(=O)(=O)CCO)cc2N2CCC(=C(F)F)CC2)c1 [Compound 41]
IC50 (OVCAR-3; [3]): < 50 nM

Structure (SMILES): CC(C)=C1CCN(c2nc(NCCO)ccc2C(=O)Nc2cccc(S(=O)(=O)C3CCCC3)c2)CC1 [Compound 44]
IC50 (OVCAR-3; [3]): < 2000 nM

Structure (SMILES): Cc1cc(NC(=O)c2ccc(NS(=O)(=O)CCO)cc2N2CCC(=C(F)F)CC2)nc(N2CCC(F)(F)CC2)c1 [Compound 48]
IC50 (OVCAR-3): < 50 nM
IC50 (HCC1806): < 50 nM
AUC0-24 h [1]: 1724.65 ng·h/mL
Cmax [1]: 153.57 ng/mL
T1/2 [1]: 4.91 h
Tmax [1]: 4.00 h
IC50 (KIF18A): < 50 nM
IC50 (HCC1954): < 50 nM

Structure (SMILES): Cc1cc(NC(=O)c2ccc(NS(=O)(=O)C(C)CO)cc2N2CCC(=C(F)F)CC2)nc(N2CCC(F)(F)CC2)n1 (stereo not shown) [Compound 52]
IC50 (OVCAR-3; [3]): < 50 nM
IC50 (HCC1806; [4]): < 100 nM

Structure (SMILES): Cc1cc(NC(=O)c2ccc(NS(=O)(=O)CCO)cc2N2CCC(=C(F)F)CC2)cc(N2CCC(F)(F)CC2)c1 [Compound 56]
IC50 (OVCAR-3): < 50 nM
AUC0-24 h ([2]; male SD rats, oral 3 mg/kg): 2051.53 ng·h/mL
Cmax ([2]; male SD rats, oral 3 mg/kg): 175.28 ng/mL
T1/2 ([2]; male SD rats, oral 3 mg/kg): 3.83 h
Tmax ([2]; male SD rats, oral 3 mg/kg): 4.00 h
IC50 (HCC1806): < 100 nM
IC50 (KIF18A): < 50 nM
IC50 (HCC1954): < 75 nM

Structure (SMILES): CC(C)(CO)Nc1ccc(C(=O)Nc2cccc(S(=O)(=O)C3CCCC3)c2)c(N2CCC(=C(F)F)CC2)n1 [Compound 59]
IC50 (OVCAR-3; [3]): < 75 nM
IC50 (HCC1806; [4]): < 200 nM
IC50 (HCC1954; Homo sapiens): < 75 nM

Structure (SMILES): Cc1cc(NC(=O)c2ccc(NS(=O)(=O)C(C)(C)CO)cc2N2CCC(=C(F)F)CC2)nc(N2CCC(F)(F)CC2)n1 [Compound 60]
IC50 (OVCAR-3): < 50 nM
AUC0-24 h ([2]; male SD rats, oral 3 mg/kg): 1330.47 ng·h/mL
Cmax ([2]; male SD rats, oral 3 mg/kg): 90.70 ng/mL
T1/2 ([2]; male SD rats, oral 3 mg/kg): 7.47 h
Tmax ([2]; male SD rats, oral 3 mg/kg): 6.67 h
IC50 (HCC1806): < 200 nM
IC50 (KIF18A): < 150 nM
IC50 (HCC1954): < 75 nM

Structure (SMILES): CC(C)(C)NS(=O)(=O)c1cccc(NC(=O)c2ccc(NC(C)(C)CO)nc2N2CCC(=C(F)F)CC2)c1 [Compound 62]
IC50 (OVCAR-3; [3]): < 200 nM
IC50 (HCC1806; [4]): < 500 nM

Structure (SMILES): CC(C)(C)NS(=O)(=O)c1cccc(NC(=O)c2ccc(S(=O)(=O)NC(C)(C)C)cc2N2CCC(=C(F)F)CC2)c1 [Compound 63]
IC50 (OVCAR-3; [3]): < 50 nM
IC50 (HCC1806; [4]): < 75 nM
IC50 (HCC1954; Homo sapiens): < 50 nM

Structure (SMILES): Cc1cc(NC(=O)c2ccc(NS(=O)(=O)CCO)nc2N2CCC(=C(F)F)CC2)nc(N2CCC(F)(F)CC2)n1 [Compound 65]
IC50 (OVCAR-3; [3]): < 500 nM
IC50 (HCC1806; [4]): < 1000 nM

Structure (SMILES): CC(C)(C)NS(=O)(=O)c1cccc(NC(=O)c2ccc(S(=O)(=O)C3(C)COC3)cc2N2CCC(=C(F)F)CC2)c1 [Compound 67]
IC50 (OVCAR-3; [3]): < 500 nM
IC50 (HCC1806; [4]): < 1000 nM

Structure (SMILES): Cc1cc(NC(=O)c2ccc(NS(=O)(=O)[C@H](C)CO)cc2N2CCC(=C(F)F)CC2)nc(N2CCC(F)(F)CC2)n1 [Compound 68]
IC50 (OVCAR-3; [3]): < 50 nM
AUC(0-t) [2, 5]: 3330 ng·h/mL
Cmax [2, 5]: 227 ng/mL
Tmax [2, 5]: 6.67 h
half-life [2, 5]: 7.18 h
IC50 (HCC1806; [4]): < 100 nM
IC50 (HCC1954; Homo sapiens): < 50 nM

Structure (SMILES): Cc1cc(NC(=O)c2ccc(NS(=O)(=O)[C@@H](C)CO)cc2N2CCC(=C(F)F)CC2)nc(N2CCC(F)(F)CC2)n1 [Compound 69]
IC50 (OVCAR-3; [3]): < 100 nM
IC50 (HCC1806; [4]): < 200 nM
IC50 (HCC1954; Homo sapiens): < 200 nM

Structure (SMILES): Cc1cc(NC(=O)c2ccc(NS(=O)(=O)C(F)CO)cc2N2CCC(=C(F)F)CC2)nc(N2CCC(F)(F)CC2)n1 (stereo not shown) [Compound 72]
IC50 (OVCAR-3; [3]): < 200 nM
IC50 (HCC1806; [4]): < 500 nM

Structure (SMILES): CC(C)(C)NS(=O)(=O)c1cccc(NC(=O)c2ccc(S(=O)(=O)C3COC3)cc2N2CCC(=C(F)F)CC2)c1 [Compound 73]
IC50 (OVCAR-3; [3]): < 200 nM
IC50 (HCC1806; [4]): < 500 nM

Structure (SMILES): Cc1nc(N2CCC(F)(F)CC2)nc(NC(=O)c2ccc(NS(=O)(=O)CCO)cc2N2CCC(=C(F)F)CC2)c1F [Compound 74]
IC50 (OVCAR-3; [3]): < 1000 nM
IC50 (HCC1954; Homo sapiens): < 1000 nM

Structure (SMILES): CCc1cc(NC(=O)c2ccc(NS(=O)(=O)CCO)cc2N2CCC(=C(F)F)CC2)nc(N2CCC(F)(F)CC2)n1 [Compound 75]
IC50 (OVCAR-3; [3]): < 200 nM

Structure (SMILES): Cc1cc(NC(=O)c2ccc(NS(=O)(=O)CCO)cc2N2CCC(=C(F)F)CC2)nc(N2CCC(F)(F)CC2)c1F [Compound 79]
IC50 (OVCAR-3; [3]): < 50 nM
AUC(0-t) [2, 5]: 2240 ng·h/mL
Cmax [2, 5]: 160 ng/mL
Tmax [2, 5]: 5.33 h
half-life [2, 5]: 7.61 h

Further lines, results first:

IC50 (OVCAR-3; [3]): < 200 nM
IC50 (HCC1806; [4]): < 500 nM
Structure (SMILES): Cc1cc(NC(=O)c2ccc(NS(=O)(=O)C(C)CO)cc2N2CCC3(CC2)CC3)nc(N2CCC(=C(F)F)CC2)n1 (stereo not shown) [Compound 3C]

IC50 (OVCAR-3; [3]): < 500 nM
IC50 (HCC1806; [4]): < 500 nM
Structure (SMILES): Cc1cc(NC(=O)c2ccc(NS(=O)(=O)C3(CO)CC3)cc2N2CCC3(CC2)CC3)nc(N2CCC(=C(F)F)CC2)n1 [Compound 13]

IC50 (OVCAR-3; [3]): < 1000 nM
IC50 (HCC1806; [4]): < 1000 nM
Structure (SMILES): Cc1cc(NC(=O)c2ccc(NS(=O)(=O)C3(CN4CC(O)C4)CC3)cc2N2CCC3(CC2)CC3)nc(N2CCC(F)(F)CC2)n1 [Compound 20]

IC50 (OVCAR-3; [3]): < 500 nM
IC50 (HCC1806; [4]): < 1000 nM
Structure (SMILES): C[C@@H]1CN(c2cccc(NC(=O)c3ccc(NS(=O)(=O)C4(CN5CCC5)CC4)cc3N3CCC4(CC3)CC4)n2)CCO1 [Compound 30]

IC50 (OVCAR-3; [3]): < 1500 nM
IC50 (HCC1806; [4]): < 1000 nM
Structure (SMILES): C[C@@H]1CN(c2cccc(NC(=O)c3ccc(NS(=O)(=O)C4(CN5CC(O)C5)CC4)cc3N3CCC4(CC3)CC4)n2)CCO1 [Compound 32]

IC50 (OVCAR-3; [3]): < 50 nM
Structure (SMILES): O=C(Nc1cccc(N2CCC(F)(F)CC2)n1)c1ccc(NS(=O)(=O)CCO)cc1N1CCC(=C(F)F)CC1 [Compound 40]

IC50 (OVCAR-3; [3]): < 1500 nM
Structure (SMILES): CP(=O)(c1cccc(NC(=O)c2ccc(NCCO)nc2N2CCC3(CC2)CC3)c1)C1CCCC1 (stereo not shown) [Compound 46]

IC50 (OVCAR-3; [3]): < 50 nM
IC50 (HCC1954; Homo sapiens): < 75 nM
Structure (SMILES): Cc1cc(NC(=O)c2ccc(NS(=O)(=O)C3CC(O)C3)cc2N2CCC3(CC2)CC3)nc(N2CCC(F)(F)CC2)n1 (stereo not shown) [Compound 47]

IC50 (OVCAR-3; [3]): < 50 nM
AUC(0-t) [2, 5]: 424 ng·h/mL
Cmax [2, 5]: 43.3 ng/mL
Tmax [2, 5]: 4.67 h
half-life [2, 5]: 6.68 h
IC50 (HCC1806; [4]): < 200 nM
IC50 (HCC1954; Homo sapiens): < 100 nM
Structure (SMILES): Cc1cc(NC(=O)c2ccc(NS(=O)(=O)C3(CO)CC3)cc2N2CCC(=C(F)F)CC2)nc(N2CCC(F)(F)CC2)n1 [Compound 51]

IC50 (OVCAR-3; [3]): < 50 nM
IC50 (HCC1954; Homo sapiens): < 50 nM
Structure (SMILES): C[C@@H]1CN(c2cccc(NC(=O)c3ccc(NS(=O)(=O)CCO)cc3N3CCC(=C(F)F)CC3)n2)CCO1 [Compound 53]

IC50 (OVCAR-3; [3]): < 50 nM
Structure (SMILES): N#Cc1ccc(NC(=O)c2ccc(NS(=O)(=O)CCO)cc2N2CCC(=C(F)F)CC2)nc1N1CCC(F)(F)CC1 [Compound 77]

AUC(0-t) [2, 5]: 4520 ng·h/mL
Cmax [2, 5]: 363 ng/mL
Tmax [2, 5]: 4.67 h
half-life [2, 5]: 5.01 h
Structure (SMILES): Cc1cc(NC(=O)c2ccc(NS(=O)(=O)[C@H](C)CO)cc2N2CCC(=C(F)F)CC2)nc(N2CCC(F)(F)CC2)c1 [Compound 82]
